In paper PMC6598759, “In vitro genotoxicity of nitroimidazoles as a tool in the search of new trypanocidal agents” (Memórias do Instituto Oswaldo Cruz, 2019):
“And” between values parts separate entries of the source, which are not always exact repeats. Identical values can stand only once. Values belong to the molecule of their own block, whether it stands above or below them.

Tests used:
[1] = system: whole human blood cells (WHBC); assay: In vitro cytokinesis-block micronucleus assay (CBMN) with whole human blood cells; conditions: for MNC in 2,000 BNC: positive control; for MN formation compared to solvent-control: concentration range analysed; for result in the CBMN: overall call
Protocol: In vitro cytokinesis-block micronucleus assay (CBMN) with whole human blood cells (WHBC) - Heparinised WHBC samples were obtained by venipuncture from volunteers as described above. […] WHBC cultures exposed to mitomycin C (MMC) (1.0 µg/mL in water) (Bristol, USA) for 2 h or to N-deacetyl-N-methylcolchicine in water (Demecolcine: Sigma-Aldrich) 0.02 µg/mL for 28 h were used as positive control cultures. After the treatment, the WHBC cultures were centrifuged (900 rpm, 10 min) and washed with 5 mL PBS. […] CytB has cytokinesis-block activity leading to the formation of binucleate cells. […] The fixed cell suspension was dropped on a clean glass slide and the slide was air-dried on a heating plate (60 °C). Air-dried slides were stained with 60 µg/mL acridine orange in Sörensen buffer (0.03 M KH2PO4, 0.03 M Na2HPO4) for 3s, then they were embedded in distilled water and covered with a coverslip. MN showing bright green fluorescence were analysed using a fluorescence microscope at 400 X magnification. MN were scored in 2,000 binucleated cells (BNC) for culture and the number of the micronucleate cells (MNC) in 2,000 BNC was determined. Cytotoxicity was measured using the cytokinesis-block proliferation index (CBPI) and the replication index (RI) which were calculated from 500 cells. The CBPI indicates the average number of nuclei per cell, and may be used to calculate cell proliferation. The RI indicates the relative number of cell cycles per cell during the period of exposure to cytoB in treated cultures compared to control cultures and can be used to calculate the % cytostasis. CBPI was calculated according to the formula: CBPI = [(No. mononucleate cells) + (2 x No. binucleate cells) + (3 x No. multinucleate cells)] / N, where N indicates the total number of cells scored. RI (%) was calculated according to the formula:
RI %=((No. binucleate cells) + (2 x No. multinucleate cells)) ÷ (Total number of cells)T/((No. binucleate cells) + (2 x No. multinucleate cells)) ÷ (Total number of cells)C x 100
where T indicates treated cultures and C control cultures
Cytotoxicity was evidenced in the occurrence of reduction in CBPI or RI of cultures treated by test substances when compared to control cultures. The measurement of cytotoxicity was used to select the concentrations of the test substance to be analysed for the presence of MN. […] However, it was adopted in this work as the maximum concentration in CBMN one that induced a proliferation inhibition not exceeding about 50% established by ICH S2 (R1) for lymphocyte cultures.
The chi-square test for trend was performed to analyse if the increase of MNC was concentration-related.[30]

[2] = system: whole human blood cells (WHBC); assay: In vitro alkaline comet assay (CA) in whole human blood cells; format: cell-based
Protocol: Methyl methane-sulfonate (MMS) (160 μM) (Sigma-Aldrich) was used as a positive control. […] Slides were prepared, lysed (pH 10; 4-5 °C) and processed as described earlier,[32] using a time of alkali denaturation of 20 min and electrophoresis (0.86 V/cm and 300 mA) of 20 min at a pH > 13. […] The DNA damage was expressed as percentage of cells into four classes and as arbitrary units (AU) according to the formula: AU = (0 […] 3), where n = the number of cells analysed in each class. The total DNA damage score in AU (TAU) for 200 cells can range from 0 TAU (200 undamaged cells) to 600 TAU (all cells maximally damaged).

Chagas disease = conditions: cited from earlier work
[3] = system: whole human blood cells (WHBC); assay: Cytotoxicity assay (FDA/EtBr) in whole human blood cells; conditions: for percentage decrease in cell viability: 2 h, 37 °C; for lethality variation range: 2 h at 37 °C, compared to solvent-control
Protocol: In vitro treatment and cytotoxicity assay in whole human blood cells (WHBC) - Heparinised WHBC was obtained by venipuncture from healthy young non-smoking volunteers with no known recent exposures to genotoxic chemicals or radiation immediately before the assays. […] The cytotoxicity assay aims to establish the degree of cell viability after treatment with nitroimidazoles to define the ranges concentrations to be tested in the in vitro CA. Cell viability was determined at the end of the treatment using the fluorescein diacetate (FDA)/ethidium bromide (EtBr)-assay, in which viable cells are labelled in green, while dead ones display orange-stained nuclei. WHBC (50 μL) was mixed with an equal volume of the freshly prepared staining solution consisting of 30 μg/mL FDA plus 8 μg/mL EtBr in phosphate-buffered saline (PBS). Samples (50 μL) were spread on a microscope slide and covered with a coverslip and observed using a fluorescence microscope. Two hundred cells were analysed for each treatment.[32] The research project involving the use of human blood samples was approved by the Committee on Ethics in Research with Human Beings - CEP Fiocruz/IOC (CAAE: 41684815.3.0000.5248) under the consolidated opinion of CEP No. 1066061.

[4] = system: bloodstream trypomastigotes form Y strain of T. cruzi; assay: In vitro trypanocidal assay; format: cell-based; conditions: Trypanosoma cruzi, read-out: IC50/24 h (concentration that produces 50% lysis of the parasites), trypomastigote forms, 37 °C
Protocol: In vitro trypanocidal assay - To accomplishment of the experiments were used bloodstream trypomastigotes form Y strain of T. cruzi, obtained at the peak of the parasitemia (7th day after infection) of infected Swiss albino mice.[34] The trypomastigotes underwent a differential centrifugation process for the separation of erythrocytes, leukocytes and concentration of the parasites in the plasma, and the purified parasites were resuspended in RPMI medium and cell concentration was determined by counting in the Neubauer chamber. Stock solution of each compound was prepared in dimethyl sulfoxide (DMSO), and the assays were performed in Dulbecco’s modified Eagle medium in 96-well plates. In the first well was placed twice the highest desired concentration of each compound, in a final volume of 200 μL, in the following wells were added 100 μL of medium supplemented with 10% foetal bovine serum (FBS) and 2% L-glutamine. Subsequently, 100 μL of parasite suspension (10^6 trypomastigotes) were added, resulting in a final concentration of 5 x 10^6 parasites/mL, incubated for 24 h at 37 °C under a 5% CO2 atmosphere and quantified in Neubauer’s chamber by light microscopy. […] At least four independent experiments were performed and the mean and standard deviation were calculated. Benznidazole (1) was used as a reference drug. The experiments were performed in accordance with the guidelines established by the Oswaldo Cruz Foundation Committee of Ethics for the Use of Animals (L 038/2018).

Salmonella typhimurium = conditions: cited from earlier work
[5] = 10,000 μM, relative to solvent-control

Compound: CN[C@H]1CCc2cc(OC)c(OC)c(OC)c2-c2ccc(OC)c(=O)cc21 [Demecolcine, N-deacetyl-N-methylcolchicine, reference compound]
MNC in 2,000 BNC ([1]; 0.02 μg/mL, 28 h): 37 and 42 and 30

Compound: COS(C)(=O)=O [MMS, Methyl methane-sulfonate, reference compound]
cells with class 3 DNA damage ([2]; 160 µM): 87.7%
TAU mean value (total DNA damage score) ([2]; 160 μM, positive control, p < 0.001 vs control): 554.2 ± 9.9 TAU

Compound: CC1CS(=O)(=O)CCN1/N=C/c1ccc([N+](=O)[O-])o1 (centres unmarked) [Nfx, nifurtimox]
discontinuation of the treatment (Chagas disease; adults with chronic infection): 14-75%
frequency of adverse effects (Chagas disease; adults with chronic infection): 43.0-97.5%

Compound: CO[C@@]12[C@H](COC(N)=O)C3=C(C(=O)C(C)=C(N)C3=O)N1C[C@@H]1N[C@@H]12 [MMC, mitomycin C, reference compound]
MNC in 2,000 BNC ([1]; 1.0 μg/mL, 2 h): 38 and 56 and 40

result in the in vitro CA [2]: positive
Compound: Cn1cnc([N+](=O)[O-])c1Nc1nnc(C(F)(F)F)[nH]1 [Compound 5]
percentage decrease in cell viability ([3]; 149 µM): 0%
percentage decrease in cell viability ([3]; 238 µM): 0%
percentage decrease in cell viability ([3]; 382 µM): 0%
percentage decrease in cell viability ([3]; 610 µM): 0%
percentage decrease in cell viability ([3]; 1,562 µM): 0%
percentage decrease in cell viability ([3]; 2,500 µM): 0%
percentage decrease in cell viability ([3]; 4,000 µM): 2.0%
percentage decrease in cell viability ([3]; 6,400 µM): 1.0%
percentage decrease in cell viability ([3]; 10,000 µM): 2.0%
lethality variation range ([3]; 149-10,000 µM): 1-4%
IC50 [4]: > 500 µM
concentrations at which a significant (p < 0.05) genotoxic effect was observed ([2]; human, 2 h): > 610 µM
CBPI ([1]; 150 µM, 4 h): 1.310
NMNC/2000 binucleated cells ([1]; 150 µM, 4 h): 20
RI (%) ([1]; 150 µM, 4 h): 151%
CBPI ([1]; 640 µM, 4 h): 1.228
NMNC/2000 binucleated cells ([1]; 640 µM, 4 h): 8
RI (%) ([1]; 640 µM, 4 h): 111%
CBPI ([1]; 1,600 µM, 4 h): 1.192
NMNC/2000 binucleated cells ([1]; 1,600 µM, 4 h): 20
RI (%) ([1]; 1,600 µM, 4 h): 95%
CBPI ([1]; 4,000 µM, 4 h): 1.340
NMNC/2000 binucleated cells ([1]; 4,000 µM, 4 h): 24
RI (%) ([1]; 4,000 µM, 4 h): 167%
CBPI ([1]; 10,000 µM, 4 h): 1.152
NMNC/2000 binucleated cells ([1]; 10,000 µM, 4 h): 36
RI (%) ([1]; 10,000 µM, 4 h): 78%
reduction of CBPI [1, 5]: 36%
reduction of RI [1, 5]: 22%
MN formation compared to solvent-control ([1]; 4 h): did not induce a significant increase in MN formation
result in the CBMN [1]: negative

Compound: O=C(Cn1ccnc1[N+](=O)[O-])NCc1ccccc1 [Benznidazole, benznidazole]
IC50 [4]: 8.8 ± 1.1 µM
serological cure (Chagas disease; adults with late chronic infection): 5-20%
digestive intolerance (Chagas disease; adverse event): 5-15%
general symptoms such as anorexia, asthenia, headache, and sleep disturbances (Chagas disease; adverse event): 40%
skin rash (Chagas disease; adverse event): 29-50%
discontinuation of treatment (Chagas disease; due to adverse events): 9-29%

Compound: Cn1cnc([N+](=O)[O-])c1-n1cccn1 [Compound 6]
percentage decrease in cell viability ([3]; 149 µM): 0%
percentage decrease in cell viability ([3]; 238 µM): 4.0%
percentage decrease in cell viability ([3]; 382 µM): 0%
percentage decrease in cell viability ([3]; 610 µM): 0%
percentage decrease in cell viability ([3]; 1,562 µM): 0%
percentage decrease in cell viability ([3]; 2,500 µM): 6%
percentage decrease in cell viability ([3]; 4,000 µM): 0%
percentage decrease in cell viability ([3]; 6,400 µM): 0%
lethality variation range ([3]; 149-6,400 µM): 1-4%
IC50 [4]: > 500 µM
result in the in vitro CA [2]: positive
concentration with significant (p < 0.05) DNA damage ([2]; human, 2 h): 6,400 µM
cells with class 1 DNA damage ([2]; human, 2 h, 6400 µM): 10.5%
concentration with cytotoxic activity (Salmonella typhimurium; TA98): 50 µg/mL
concentration with mutagenicity in TA100 (Salmonella typhimurium; TA100, absence and presence of S9 mixture, highest tested concentration): 50 µg/mL
concentration range with cytotoxic activity (Salmonella typhimurium; TA100 and TA1535 strains): 1.0 to 50 µg/mL
CBPI ([1]; 150 µM, 4 h): 1.184
NMNC/2000 binucleated cells ([1]; 150 µM, 4 h): 32
RI (%) ([1]; 150 µM, 4 h): 148%
CBPI ([1]; 640 µM, 4 h): 1.204
NMNC/2000 binucleated cells ([1]; 640 µM, 4 h): 12
RI (%) ([1]; 640 µM, 4 h): 132%
CBPI ([1]; 1,600 µM, 4 h): 1.134
NMNC/2000 binucleated cells ([1]; 1,600 µM, 4 h): 16
RI (%) ([1]; 1,600 µM, 4 h): 114%
CBPI ([1]; 4,000 µM, 4 h): 1.068
NMNC/2000 binucleated cells ([1]; 4,000 µM, 4 h): 12
RI (%) ([1]; 4,000 µM, 4 h): 56%
CBPI ([1]; 10,000 µM, 4 h): 1.036
RI (%) ([1]; 10,000 µM, 4 h): 24%
maximum concentration used in MN analysis (inducing in the maximum 50% reduction of CBPI or RI) ([1]; 4 h, relative to solvent-control): 4,000 μM
MN formation compared to solvent-control ([1]; 4 h): did not induce a significant increase in MN formation
result in the CBMN [1]: negative
